Measurements from PMC12957798, “Adaptation of plateau frog peptide: From antimicrobial to angiogenic and proliferative functions” (Journal of Advanced Research, 2025).

Legend:
HaCaT cells [1] = experiment: In vitro scratch wound healing (migration) assay, HaCaT; assay type: cell-based, Human; details: SC17-2 concentrations exceeding 10 μg/mL, 16 h
HSF cells = experiment: In vitro wound healing (migration) assay, HSF; assay type: cell-based, Human; details: SC17-2 concentrations exceeding 10 μg/mL, 16 h
HUVEC cells = experiment: In vitro wound healing (migration) assay, HUVEC; assay type: cell-based, Human; details: SC17-2 concentrations exceeding 10 μg/mL, 16 h
HaCaT cells [2] = experiment: In vitro UVB damage repair (CCK-8); assay type: cell-based, Human
Protocol: HaCaT cells were inoculated in 24-well plates at 1 × 10^4 cells/well and incubated for 24 h to ensure uniformity and number of cells per well. Prior to UVB irradiation, cells were washed with phosphate buffer solution (PBS) and covered with 300 μL of PBS. The blank control group was wrapped through tinfoil to eliminate the effects caused by UVB irradiation and subsequently irradiated through […]. Immediately after irradiation, PBS was replaced with DMEM/F12 medium and 20 and 5 μg/mL of peptides SC17-2 were added, respectively, and incubated for 24 h. After that, 10 μL of CCK-8 was added to each well, and incubated for 2 h. The absorbance values of each well were measured at 450 nm.

BALB/c mice = experiment: Mouse full-thickness skin wound healing; assay type: in vivo; details: for wound area: 20 μL daily on wound, relative to day 1, mean ± SEM, n = 7
Protocol: Mice were anaesthetised with sodium pentobarbital 2 % by intraperitoneal injection (0.1 mL/20 g mouse body weight), and after anaesthesia, hair was removed from the back using depilatory cream and power scissors, and circular full-thickness skin wounds of the same diameter were marked and created on the back of each mouse using circular stamps and red sealant. The mouse wounds were then covered and infiltrated daily with 20 μL of different concentrations of SC17-2 or 20 ng/mL VEGF, and an equal volume of saline was used in the control group. The mice were anaesthetised by isoflurane nebulisation (concentration 2 %) every two days and then placed under an optical camera to photograph the effect of the wound area.
Sodium pentobarbital (2 %) was utilised for the anaesthetisation of mice by intraperitoneal injection (0.1 mL/20 g of mouse body weight). Subsequent to the induction of anaesthesia, the dorsal hair was removed using depilatory creams and electric scissors. Thereafter, circular full skin wounds of the same diameter were marked and created on the back of each mouse using circular stamps and red stencils. Mouse wounds were then covered and infiltrated daily with 20 μL of different concentrations of SC17-2 or 20 ng/mL of VEGF, and an equal volume of saline was used in the control group. Mice were anaesthetised every two days using isoflurane nebulisation followed by anaesthesia (concentration 2 %), after which they were placed under an optical camera to photograph the effect of wound area. After 13 days of treatment, mice were anaesthetised using isoflurane nebulisation followed by injection of an overdose of sodium pentobarbital to euthanise the mice (200 mg/kg). The wounds and their surrounding tissues were then excised for histopathological evaluation (Masson and H&E staining) and analysed by Enface immunofluorescence staining.

p-ERK/ERK = experiment: Western blot p-ERK/ERK in HaCaT; assay type: cell-based, Human; details: SC17-2 20 μg/mL, 24 h (16 h elsewhere in the source), n = 3
Protocol: (§1) HaCaT was inoculated in 12-well plates (2 × 10^5 cells/well) and cultured for 24 h. Afterwards, HaCaT cells were treated with equal amounts of VEGF, SC17-2, and PBS for 16 h. Cells were washed with PBS, after which the samples were collected and added to 1 mL of RIPA lysate containing protease inhibitors and phosphatase inhibitors and placed on ice for 30 min. Allowed to be after sufficient lysis, the supernatant was centrifuged and collected to determine the protein concentration using a nanodrop, followed by the addition of SDS sampling buffer and heating at 95 °C for 10 min. Samples were loaded and run on a gel block based on the determined sample concentration, and then electrotransferred onto a 0.45 μm PVDF membrane. […] After washing three times with TBST, proteins were visualised and scanned by enhanced chemiluminescence using the ChemiDoc XRS imaging system (Bio-Rad, Hercules, CA, USA).

TGF-β = experiment: Western blot TGF-β in HaCaT; assay type: cell-based, Human; details: SC17-2 20 μg/mL, 24 h (16 h elsewhere in the source), n = 3
Protocol: as §1

TGF-β1 mRNA = experiment: qPCR TGF-β1 mRNA in HaCaT; assay type: cell-based, Human; details: SC17-2, HaCaT
Protocol: HaCaT cells were treated as above, washed twice with PBS and lysed using Trizol for 5 min, after which 200 μL of chloroform was added and shaken vigorously for 30 s. The cells were centrifuged for 15 min to separate the upper and lower layers (12,500 g, 4 °C). The supernatant was vortexed with an equal amount of isopropanol and left to stand for 10 min, and then centrifuged again under the same conditions to retain only the white precipitate. 500 μL of 75 % ethanol was added and centrifuged (12000 rpm, 4 °C, 10 min) and the operation was repeated twice. Afterwards, DEPC was used for dissolution and the concentration was determined by nanodrop. One-step reverse transcription to DNA was performed using 5 × MIX, after which primers and 2 × MIX were added and placed. qPCR was performed (LightCycler96, F. Hoffmann-La Roche, Swiss).

EGFR [3] = target: T1, EGFR (Homo sapiens, UniProt P00533); experiment: Surface plasmon resonance (SPR); assay type: binding
Protocol: The analysis of biomolecular interactions was conducted utilising a Biacore S200 biosensor system (S200, Biacore, China). Briefly, the EGFR (20 μg/mL) was immobilised by amine coupling on the surface of a CM5 sensor chip (29104988, Cytiva, China) with a resonance unit (RU) of approximately 2000, using a sodium acetate buffer (10 mM, pH 4) as the immobilisation solution. In order to assess the affinity of SC17-2 for the epidermal EGFR, SC17-2 was injected at a flow rate of 30 μL/min onto a chip containing immobilised EGFR. The injection of SC17-2 was carried out at a flow rate of 30 μL/min at concentrations ranging from 5 to 500 μg/mL. The RU were recorded. The binding dissociation constants (KD) were determined using BiacoreTM Insight software.

EGFR [4] = target: T1, EGFR; experiment: Bio-Layer Interferometry (BLI); assay type: binding
Protocol: Prepare 20 μg/mL of EGFR protein solution (solvent 0.1 % PBS-Tween), and different concentrations of SC17-2 (5, 10, 20 μg/mL) dissolved using PBST. Biotin was added and incubated at room temperature for 30 min according to the instructions, and the corresponding probes were soaked in PBST for 10 min. The assay was carried out according to the BLI predefined procedure (Octet K2, ForteBio, USA), followed by calculations using the accompanying software, and graphpad was used for graphing.

[5] = Circular dichroism spectroscopy; assay type: physicochemical

## SFMPLSIPIMCKMLSKC [SC17-2, peptide of the pleskein family from the skin transcriptome of the frog Nanorana parkeri, made by solid-phase synthesis]
HaCaT cells [1]
  HaCaT migration: notable enhancement
HSF cells
  HSF migration: notable enhancement
HUVEC cells
  HUVEC migration: notable enhancement
HaCaT cells [2]; SC17-2 20 μg/mL vs group not irradiated
  UVB damage repair compared with non-irradiated group: considerably less pronounced
HaCaT cells [2]; SC17-2 20 μg/mL, 24 h after 5 J/cm UVB, CCK-8, vs saline after irradiation
  attenuation of UVB-induced damage: capable of effectively removing the damage caused by UVB radiation
HaCaT cells [2]; SC17-2 20 and 5 μg/mL, 24 h, CCK-8, n = 3
  attenuation of cell injuries after UVB irradiation: could attenuate the cell injuries
BALB/c mice; SC17-2 20 μg/mL, at times other than day 9
  reduction of wound area vs control, significance: significantly promote the reduction of wound area
BALB/c mice; SC17-2 20 μg/mL, day 9
  reduction of wound area vs control on day 9: non-significant difference
BALB/c mice; after 13 days of treatment
  final reduction in wound area, dose dependence: metrologically dependent on SC17-2
BALB/c mice; day 3, SC17-2 20 μg/mL
  wound area: 77.84 ± 3.34%
BALB/c mice; day 5, SC17-2 20 μg/mL
  wound area: 54.43 ± 2.53%
BALB/c mice; day 13, SC17-2 20 μg/mL vs VEGF
  wound area compared with VEGF: significantly smaller
BALB/c mice; day 13, SC17-2 20 μg/mL
  wound area: 2.65 ± 0.72%
BALB/c mice; days 3 and 5, SC17-2 20 μg/mL
  wound area reduction, ratio to saline-treated control: ~1.3 fold
p-ERK/ERK
  ERK phosphorylation: significantly increased ERK phosphorylation
TGF-β
  expression of TGF-β: significantly increase the expression of TGF-β
TGF-β1 mRNA
  TGF-β1 expression (qPCR): simultaneous increase
EGFR [3]
  EGFR binding, dose dependence: binds in a dose-dependent manner
EGFR [4]
  EGFR binding, dose dependence: binds in a dose-dependent manner
[5]; 0 mM (H2O) and 60 mM SDS
  secondary structure composition: primarily of random coil and β-sheet structures, with only trace amounts of γ-turn and α-helix structures
[5]; 0 mM (H2O) vs 60 mM SDS
  secondary structure, change with SDS: remained largely unchanged
